From PubChem BioAssay (NCI)
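Compound exposure: 48 hours, 5 concentrations, 96-well plates. The concentration for full growth arrest is given as TGI.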

Assays:
Test in all cases: NCI tumour cell line growth inhibition, 48 h
[1] = test system: CAKI-1 renal
[2] = test system: RXF-631 renal
[3] = test system: SK-MEL-2 melanoma
[4] = test system: UACC-257 melanoma
[5] = test system: LXFL 529 NSCLC
[6] = test system: KM12 colon
[7] = test system: CCRF-CEM leukemia
[8] = test system: DLD-1 colon
[9] = test system: TK-10 renal
[10] = test system: SNB-78 CNS
[11] = test system: LOX IMVI melanoma
[12] = test system: OVCAR-8 ovarian
[13] = test system: SW-620 colon
[14] = test system: HOP-92 NSCLC
[15] = test system: RPMI-8226 leukemia
[16] = test system: NCI-H226 lung
[17] = test system: SK-MEL-28 melanoma
[18] = test system: HT29 colon
[19] = test system: MALME-3M melanoma
[20] = test system: HCC-2998 colon
[21] = test system: SF-295 CNS
[22] = test system: KM20L2 colon
[23] = test system: HL-60(TB) leukemia
[24] = test system: M19-MEL melanoma
[25] = test system: 786-0 renal
[26] = test system: SNB-19 CNS
[27] = test system: RXF 393 renal
[28] = test system: NCI-H522 lung
[29] = test system: A549 NSCLC
[30] = test system: NCI-H23 lung
[31] = test system: SK-OV-3 ovarian
[32] = test system: NCI-H460 lung
[33] = test system: OVCAR-5 ovarian
[34] = test system: SR leukemia
[35] = test system: XF 498 CNS
[36] = test system: MOLT-4 leukemia
[37] = test system: DMS 114 small cell lung
[38] = test system: SF-268 CNS
[39] = test system: DMS 273 small cell lung
[40] = test system: SK-MEL-5 melanoma
[41] = test system: OVCAR-3 ovarian
[42] = test system: SN12C renal
[43] = test system: HCT-15 colon
[44] = test system: UACC-62 melanoma
[45] = test system: EKVX NSCLC
[46] = test system: COLO 205 colon
[47] = test system: U251 CNS
[48] = test system: IGROV1 ovarian
[49] = test system: HOP-62 NSCLC
[50] = test system: SNB-75 CNS
[51] = test system: A498 renal
[52] = test system: SF-539 CNS
[53] = test system: HCT-116 colon
[54] = test system: K-562 leukemia
[55] = test system: M14 melanoma
[56] = test system: HOP-18 NSCLC
[57] = test system: ACHN renal
[58] = test system: OVCAR-4 ovarian
[59] = test system: UO-31 renal

Measured: TGI

Cc1cccc(C)c1NC(=O)CCC(=O)NNc1nnc(C)n1N
> 100 µM: all assays above
